# Biological target: ROCK1 (Homo sapiens (Human), UniProt Q13464)
# Experiment: ROCK1 kinase IC50 assay (biological test method similar to the ROCK2 assay)
# Format: biochemical
# Description: The kinase IC50 was determined by a commercialized CISBIO kinase detection kit, HTRF KinEASE-STK S2 kit (62ST2PEC). ROCK2 (01-119) employed in the reaction was purchased from Carna Biosciences.
# Before the assay, the following working solutions as needed were formulated with corresponding reagents according to the instruction of the kinase detection kit: 1×kinase buffer, 5×STK-52 substrate working solution (1.5 μM) and 5×ATP working solution (1.5 μM), 5×ROCK2 kinase working solution, 4×Streptavidin-XL665 working solution, and 4×STK-Ab-Cryptate 2 detection solution. Then the assay was performed according to the following procedure.
# A solution of a compound at a concentration of 10000 nM was prepared with the 1×kinase buffer containing 2.5% DMSO. Gradient dilution of the solution of the compound was performed with the kinase buffer containing DMSO, so as to obtain solutions of a test compound at 9 different concentrations. In addition to wells of test compounds, a positive well (containing all the reagents except the compound) and a negative well (containing all the reagents except the test compound and kinase) were set. Except for the control wells (positive and negative wells), a solution of a test compound (4 μL) was added to each of the reaction wells, and a solution of 2.5% DMSO was added to the control wells. Then the substrate ([…], 2 μL. 5×STK-S2 substrate working solution) was added to each of the reaction wells. The 5×ROCK2 kinase working solution (2 μL, containing 1.4 ng ROCK2 kinase) was added to each of the reaction wells except for the negative well, the volume of which was made up with the 1×kinase buffer (2 μL). The 5×ATP working solution (2 μL) was added to each of the reaction wells, and the mixtures were incubated at room temperature for 2 hours. After the kinase reaction was complete, the 4×Streptavidin-XL665 working solution was added to each of the reaction wells, the solutions were mixed, followed by immediate addition of the 4×STK-Ab-Cryptate 2 detection solution (5 μL), and the mixtures were incubated at room temperature for 1 hour. The fluorescence signal was read on ENVISION (Perkinelmer) (excitation wavelength: 320 nm, and emission wavelength: 665 nm and 615 nm). The inhibitory rate in each well was calculated based on the fluorescence intensity value: ER (Emission Ratio)=(fluorescence intensity at 665 nm/fluorescence intensity at 615 nm); inhibitory rate=(ERpositive−ERtest compound)/(ERpositive−ERnegative)*100%. Curves were plotted and fitted to obtain the median inhibitory concentration (IC50) of each teat compound with the PRISM 5.0 software.
# According to a biological test method similar to the above, the IC50 values of the compounds on ROCK1 were tested.
# Sequence of ROCK1 (Q13464 whole entry, species assumed): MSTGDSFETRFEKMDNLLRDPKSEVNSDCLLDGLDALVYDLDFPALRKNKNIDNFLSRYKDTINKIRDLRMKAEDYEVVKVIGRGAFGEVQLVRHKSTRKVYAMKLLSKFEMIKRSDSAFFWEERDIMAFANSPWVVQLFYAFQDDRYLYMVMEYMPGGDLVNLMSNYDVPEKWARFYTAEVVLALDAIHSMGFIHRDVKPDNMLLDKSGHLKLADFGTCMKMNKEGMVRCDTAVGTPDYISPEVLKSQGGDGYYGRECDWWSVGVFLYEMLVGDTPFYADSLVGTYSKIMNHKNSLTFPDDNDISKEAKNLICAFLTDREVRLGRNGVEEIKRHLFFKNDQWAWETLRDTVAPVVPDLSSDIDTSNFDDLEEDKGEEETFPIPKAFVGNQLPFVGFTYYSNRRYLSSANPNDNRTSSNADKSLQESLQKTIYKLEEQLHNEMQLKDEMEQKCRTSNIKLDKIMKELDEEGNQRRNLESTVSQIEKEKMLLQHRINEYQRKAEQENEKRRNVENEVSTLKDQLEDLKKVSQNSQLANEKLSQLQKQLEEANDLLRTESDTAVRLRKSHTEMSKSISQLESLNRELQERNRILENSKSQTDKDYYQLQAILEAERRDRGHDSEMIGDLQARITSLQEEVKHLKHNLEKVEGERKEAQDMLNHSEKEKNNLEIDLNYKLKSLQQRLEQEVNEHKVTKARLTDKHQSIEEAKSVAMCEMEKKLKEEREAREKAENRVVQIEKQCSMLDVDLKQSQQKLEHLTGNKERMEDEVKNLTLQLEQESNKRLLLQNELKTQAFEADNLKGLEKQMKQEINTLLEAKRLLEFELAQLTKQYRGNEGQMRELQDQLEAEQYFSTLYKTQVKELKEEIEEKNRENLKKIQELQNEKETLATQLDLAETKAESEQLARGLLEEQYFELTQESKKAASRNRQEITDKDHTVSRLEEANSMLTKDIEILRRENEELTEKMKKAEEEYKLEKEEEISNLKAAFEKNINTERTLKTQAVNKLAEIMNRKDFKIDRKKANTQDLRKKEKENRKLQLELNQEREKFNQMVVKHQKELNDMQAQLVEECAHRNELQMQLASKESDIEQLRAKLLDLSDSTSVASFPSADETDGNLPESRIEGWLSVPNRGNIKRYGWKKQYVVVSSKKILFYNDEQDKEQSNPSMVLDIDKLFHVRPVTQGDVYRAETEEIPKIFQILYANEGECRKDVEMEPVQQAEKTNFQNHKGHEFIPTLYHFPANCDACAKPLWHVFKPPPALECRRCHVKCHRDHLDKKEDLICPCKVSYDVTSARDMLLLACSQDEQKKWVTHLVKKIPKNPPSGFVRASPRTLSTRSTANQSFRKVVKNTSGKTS
row,Structure (SMILES),IC50
1,"Fc1cc(Nc2ccnc(-c3ccc4cc(-c5nccs5)[nH]c4c3)n2)ccc1-c1cn[nH]c1 [TDI01908, N-(3-fluoro-4-(1H-pyrazol-4-yl)phenyl)-2-(2-(thiazol-2-yl)-1H-indol-6-yl)pyrimidin-4-amine]",> 10000 nM
2,"CC(C)NC(=O)C1Cc2ccc(-c3nccc(Nc4ccc5[nH]ncc5c4)n3)cc2N1 (stereo not drawn) [TDI01292, 6-(4-((1H-indazol-5-yl)amino)-pyrimidin-2-yl)-N-isopropyl-indoline-2-carboxamide]",4840 nM
3,"Cc1cc(Nc2ccc3[nH]ncc3c2)nc(-c2ccc3cc(C(=O)Nc4ccnnc4)[nH]c3c2)n1 [TDI01251, 6-(4-((1H-indazol-5-yl)amino)-6-methyl-pyrimidin-2-yl)-N-(pyridazin-4-yl)-1H-indole-2-carboxamide]",> 10000 nM
4,"O=C(Nc1cnccn1)c1cc2ccc(-c3nccc(Nc4ccc5[nH]ncc5c4)n3)cc2[nH]1 [TDI01160, 6-(4-((1H-indazol-5-yl)amino)pyrimidin-2-yl)-N-(pyrazin-2-yl)-1H-indole-2-carboxamide]",2240 nM
5,"O=C(NC1CCOC1)c1cc2ccc(-c3nc(Nc4ccc(-c5cn[nH]c5)cc4)c4sccc4n3)cc2[nH]1 (stereo not drawn) [TDI01423, 6-(4-((4-(1H-pyrazol-4-yl)phenyl)-amino)-thieno-[3,2-d]-pyrimidin-2-yl)-N-(tetrahydro-furan-3-yl)-1H-indole-2-carboxamide]",> 10000 nM
6,"CC(C)NC(=O)c1cc2ccc(-c3nc(Nc4ccc5[nH]ncc5c4)c4scnc4n3)cc2[nH]1 [TDI01149, 6-(7-((1H-indazol-5-yl)ami-no)thiazolo[4,5-d]pyrimidin-5-yl)-N-isopropyl-1H-indole-2-carboxamide]",1320 nM
7,"CN(CC(F)(F)F)C(=O)c1cc2ccc(-c3nccc(Nc4ccc(-c5cn[nH]c5)cc4)n3)cc2[nH]1 [TDI01355, 6-(4-((4-(1H-pyrazol-4-yl)phenyl)-amino)-pyrimidin-2-yl)-N-methyl-N-(2,2,2-trifluoroethyl)-1H-indole-2-carboxamide]",> 10000 nM
8,"CNC(=O)c1cc2ccc(-c3nccc(Nc4ccc5[nH]ncc5c4)n3)cc2s1 [TDI01109, 6-(4-((1H-indazol-5-yl)amino)pyrimidin-2-yl)-N-methylben-zo[b]thiophene-2-carboxamide]",> 10000 nM
9,"O=C(Nc1ccccn1)c1cc2ccc(-c3nccc(Nc4ccc5[nH]ncc5c4)n3)cc2[nH]1 [TDI01311, 6-(4-((1H-indazol-5-yl)amino)pyrimidin-2-yl)-N-(pyridin-2-yl)-1H-indole-2-carboxamide]",> 10000 nM
10,"CN1CCC(N2CCCC(NC(=O)c3cc4ccc(-c5nccc(Nc6ccc7[nH]ncc7c6)n5)cc4[nH]3)C2)CC1 (stereo not drawn) [TDI01318, 6-(4-((1H-indazol-5-yl)amino)-pyrimidin-2-yl)-N-(1′-methyl-[1-4′-bipiperidin]-3-yl)-1H-indole-2-carboxamide]",274 nM
11,"CNC(=O)c1cc2ccc(-c3nccc(Nc4ccc(-c5cn[nH]c5)cc4)n3)cc2[nH]1 [TDI01296, 6-(4-((4-(1H-pyrazol-4-yl)phenyl)-amino)-pyrimidin-2-yl)-N-methyl-1H-indole-2-carboxamide]",2870 nM
12,"O=C(Nc1ccncc1)c1cc2ccc(-c3nccc(Nc4ccc5[nH]ncc5c4)n3)cc2[nH]1 [TDI01153, 6-(4-((1H-indazol-5-yl)amino)-pyrimidin-2-yl)-N-(pyridin-4-yl)-1H-indole-2-carboxamide]",2720 nM
13,"O=C(NC1CCOC1)c1cc2ccc(-c3nccc(Nc4ccc5[nH]ncc5c4)n3)cc2s1 (stereo not drawn) [TDI01113, 6-(4-((1H-indazol-5-yl)amino)pyrimidin-2-yl)-N-(tetrahydrofuran-3-yl)benzo[b]thiophene-2-carboxamide]",554 nM
14,O=C(c1cc2ccc(-c3nccc(Nc4ccc(-c5cn[nH]c5)cc4)n3)cc2[nH]1)N1CCO[C@@H](CO)C1 [TDI01852],> 10000 nM
15,"CC(C)NC(=O)N1Cc2ccc(-c3nccc(Nc4ccc5[nH]ncc5c4)n3)cc2C1 [TDI01312, 5-(4-((1H-indazol-5-yl)amino)pyrimidin-2-yl)-N-isopropylisoindoline-2-carboxamide]",1840 nM
16,"O=C(Nc1ccncn1)c1cc2ccc(-c3nccc(Nc4ccc5[nH]ncc5c4)n3)cc2[nH]1 [TDI01161, 6-(4-((1H-indazol-5-yl)amino)-pyrimidin-2-yl)-N-(pyrimidin-4-yl)-1H-indole-2-carboxamide]",> 10000 nM
17,"O=C(Nc1ccnnc1)c1c[nH]c2ccc(-c3nccc(Nc4ccc5[nH]ncc5c4)n3)cc12 [TDI01191, 5-(4-((1H-indazol-5-yl)amino)-pyrimidin-2-yl)-N-(pyridazin-4-yl)-1H-indole-3-carboxamide]",2530 nM
18,"C[C@H](CN)NC(=O)c1cc2ccc(-c3nccc(Nc4ccc(-c5cn[nH]c5)cc4)n3)cc2[nH]1 [TDI01855, (R)-6-(4-((4-(1H-pyrazol-4-yl)phenyl)-amino)-pyrimidin-2-yl)-N-(1-aminopropan-2-yl)-1H-indole-2-carboxamide]",5420 nM
19,"CN(C)C(=O)c1cc2ccc(-c3nccc(Nc4ccc5[nH]ncc5c4)n3)cc2s1 [TDI01110, 6-(4-((1H-indazol-5-yl)amino)pyrimidin-2-yl)-N, N-dimethylben-zo[b]thiophene-2-carboxamide]",> 10000 nM
20,"O=C(Nc1ccnnc1)c1cc2ccc(-c3ncc(F)c(Nc4ccc5[nH]ncc5c4)n3)cc2[nH]1 [TDI01213, 6-(4-((1H-indazol-5-yl)amino)-5-fluoropyrimidin-2-yl)-N-(pyridazin-4-yl)-1H-indole-2-carboxamide]",> 10000 nM
21,"O=C(Nc1ccnnc1)c1cc2cc(-c3nccc(Nc4ccc5[nH]ncc5c4)n3)ccc2[nH]1 [TDI01188, 5-(4-((1H-indazol-5-yl)amino)-pyrimidin-2-yl)-N-(pyridazin-4-yl)-1H-indole-2-carboxamide]",1280 nM
22,"Cc1c(Nc2ccnc(-c3ccc4cc(C(=O)Nc5ccnnc5)[nH]c4c3)n2)ccc2[nH]ncc12 [TDI01276, 6-(4-((4-methyl-1H-indazol-5-yl)amino)-pyrimidin-2-yl)-N-(pyridazin-4-yl)-1H-indole-2-carboxamide]",> 10000 nM
23,"O=C(c1cc2ccc(-c3nccc(Nc4ccc(-c5cn[nH]c5)c(F)c4)n3)cc2[nH]1)N1CC(F)(F)C1 [TDI01842B, (3,3-difluoroazetidin-1-yl)(6-(4-((3-fluoro-4-(1H-pyrazol-4-yl)phenyl)ami-no)pyrimidn-2-yl)-1H-indol-2-yl)methanone]",2770 nM
24,"CCN(CC)C(=O)c1cc2ccc(-c3nccc(Nc4ccc(-c5cn[nH]c5)cc4)n3)cc2[nH]1 [TDI01332, 6-(4-((4-(1H-pyrazol-4-yl)phenyl)-amino)-pyrimidin-2-yl)-N,N-diethyl-1H-indole-2-carboxamide]",6270 nM
25,"CC(C)NC(=O)c1cc2ccc(-c3nc(Nc4ccc5[nH]ncc5c4)c4cc[nH]c4n3)cc2[nH]1 [TDI01143, 6-(4-((1H-indazol-5-yl)amino)-7H-pyrrolo[2,3-d]pyrimidin-2-yl)-N-isopropyl-1H-indole-2-carboxamide]",1480 nM
26,"O=C(c1cc2ccc(-c3nccc(Nc4ccc(-c5cn[nH]c5)cc4)n3)cc2[nH]1)N1CCC2(CCNCC2)CC1 [TDI01425, (6-(4-((4-(1H-pyrazol-4-yl)phenyl)-amino)-pyrimidin-2-yl)-1H-indol-2-yl)(3,9-diazaspiro[5.5]undecan-3-yl)methanone]",2940 nM
27,"Cn1cc(NC(=O)c2cc3ccc(-c4nccc(Nc5ccc6[nH]ncc6c5)n4)cc3[nH]2)cn1 [TDI01134, 6-(4-((1H-indazol-5-yl)amino)-pyrimidin-2-yl)-N-(1-methyl-1H-pyrazol-4-yl)-1H-indole-2-carboxamide]",1370 nM
28,"Cn1c(C(=O)N2CC(F)(F)C2)cc2ccc(-c3nccc(Nc4ccc(-c5cn[nH]c5)cc4)n3)cc21 [TDI01470, (6-(4-((4-(1H-pyrazol-4-yl)phenyl)amino)pyrimidin-2-yl)-1-methyl-1H-indol-2-yl)(3,3-difluoroazetidin-1-yl)methanone]",> 10000 nM
29,"O=C(NC1CCN(c2ccncc2Cl)CC1)c1cc2ccc(-c3nccc(Nc4ccc(-c5cn[nH]c5)cc4)n3)cc2[nH]1 [TDI01847B, 6-(4-((4-(1H-pyrazol-4-yl)phenyl)-amino)-pyrimidin-2-yl)-N-(1-(3-chloropyridin-4-yl)piperidin-4-yl)-1H-indole-2-carboxamide]",3380 nM
30,"CN1CCC(n2cc(NC(=O)c3cc4ccc(-c5nccc(Nc6ccc7[nH]ncc7c6)n5)cc4[nH]3)cn2)CC1 [TDI01316, 6-(4-((1H-indazol-5-yl)amino)-pyrimidin-2-yl)-N-(1-(1-methyl-piperidin-4-yl)-1H-pyrazol-4-yl)-1H-indole-2-carboxamide]",999 nM

# — patent publication US11390609B2, “Rho-associated protein kinase inhibitor, pharmaceutical composition comprising same, and preparation method and use thereof” (BEIJING TIDE PHARMACEUTICAL CO., LTD., priority 2017, dated 2022)
